By pEC50 is commonly meant −log10 of the EC50, conventionally taken in molar units. One may read the pKi as the negative decadic logarithm of the Ki, by convention in mol/L.

The target in one assay is T1, αER (Homo sapiens, UniProt P03372).
T1 construct: expressed in transfected cells; host or cells: 293 cells (Human Embryonic Kidney, ATCC CRL-1573)
T1 sequence (P03372 1-595): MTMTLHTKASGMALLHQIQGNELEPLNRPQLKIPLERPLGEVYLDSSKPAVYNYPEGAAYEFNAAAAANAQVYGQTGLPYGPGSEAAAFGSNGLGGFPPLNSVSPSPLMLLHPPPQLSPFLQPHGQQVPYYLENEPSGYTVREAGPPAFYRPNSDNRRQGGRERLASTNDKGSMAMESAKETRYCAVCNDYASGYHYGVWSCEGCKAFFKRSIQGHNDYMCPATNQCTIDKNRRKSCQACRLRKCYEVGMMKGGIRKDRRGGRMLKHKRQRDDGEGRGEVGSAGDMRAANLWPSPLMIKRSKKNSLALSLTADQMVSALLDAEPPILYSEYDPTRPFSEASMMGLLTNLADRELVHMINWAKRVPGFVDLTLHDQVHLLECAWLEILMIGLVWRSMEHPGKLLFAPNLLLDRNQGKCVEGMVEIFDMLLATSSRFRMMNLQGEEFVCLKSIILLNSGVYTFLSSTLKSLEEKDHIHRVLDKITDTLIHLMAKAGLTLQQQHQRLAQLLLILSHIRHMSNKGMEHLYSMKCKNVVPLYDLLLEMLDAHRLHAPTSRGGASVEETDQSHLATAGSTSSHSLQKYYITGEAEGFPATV
Briefly: Cell-based assay for ER transcriptional activity (ERE β-gal reporter), αER-transfected 293 cells. The following applies: 293 cells transfected with αER and ERE reporter; for ERE α-ER Max: maximal response, unit assumed; for pEC50: read-out: ERE α-ER EC50. The procedure:
(§1) ERs are ligand-dependent transcription factors that bind the promoter regions of genes at a consensus DNA sequence called the estrogen responsive element (ERE). The ER agonist or antagonist activity of a drug was determined by measuring the amount of reporter enzyme activity expressed from a plasmid under the control of an estrogen-responsive element when cells transiently transfected with ER and the reporter plasmid were exposed to drug. These experiments were conducted according to the following methods.
(§2) Estrogen Receptors alpha (αER, Gen Bank accession #M12674), and beta (βER, Gen Bank #X99101 were cloned into the expression vector pSG5 (Stratagene). A trimer of the vitellogenin-gene estrogen response element (vitERE) was synthesized as an oligonucleotide and attached to a beta-globin basal promoter in a construct named pERE3 gal. This response element and promoter were removed from pERE3 gal by digestion with the endonucleases SpeI (filled with Klenow fragment) and HindIII. This blunt/Hind III fragment was cloned into the β-galactosidase (β-gal) enhancer reporter plasmid (pBGALenh, Stratagene). αER and βER plasmids were purified using a the Endo Free Maxi Kit (Qiagen), and the DNA concentration and purity (A260/280 ratio) were determined spectrophotometrically (Pharmacia). Only DNA with A260/280 ratio of 1.8 and a concentration of >1 ug/uL was used for transfections.
(§3) All Transfections are performed in 293 cells (Human Embryonic Kidney cells ATCC #CRL-1573). Cells are grown in DMEM supplemented with 10% FBS, glutamine, sodium pyruvate and penicilin/streptomycin. Cells are grown to 70% confluency and split 1:4.
(§4) • 1. 293 cells are split the night before onto collagen I-coated 150 mm tissue-culture plates (Biocoat, Becton Dickinson #354551) at a density of 60-70% in DMEM Mediatech 17-205-CV) 10% charcoal-stripped FBS (biocell #6201-31). Approximately 1×10^7 cells/plate will yield 70% confluency. • 2. The next morning, 1 hour prior to transfection, the media is changed to fresh DMEM 10% FBS stripped and supplements. • 3. Transfections are performed using the Profection Kit (Promega #E1200). This kit is based on the calcium-phosphate-mediated transfection technique. Reagents are added in sterile polystyrene tubes in the following order:
(§5) Solution A • 15 μg αER or βER • 45 μg Reporter (pBGALenh or ERE3) • 1.5 mL Sterile Water • 186 μL CaCl2 • *Mix gently
(§6) Solution B • 1.5 mL 2× Hank's Buffered Salt Solution • 4. Using a vortex set on low, add solution A to solution B dropwise. The resulting solution should become milky in color. It is important to achieve thorough mixing. The solution is allowed to settle for 30 minutes, then vortexed before adding the solution to cells. • 5. Add the mixture to 150 mm plates dropwise. Mix well by rocking plates back and forth and side to side gently. After an hour, a very fine precipitate should be seen floating on and above cells under 20× magnification. If this precipitate is not observed, the transfection will not be effective. Incubate the cells for 12 hours. Receptor Stimulation: • 1. The day after transfection, cells are washed 2× with calcium- and magnesium-free Mg free PBS containing 1 mM EGTA (pH 7.6). Cells are trypsinized for 2 min with 3 mL of trypsin-EDTA. Trypsin is neutralized with DMEM 10% FCS. Cells are pelleted at 1000×g for 5 min. The cell pellet is then resuspended in 5 mL DMEM plus 2% phenol-red-free FCS supplemented with glutamine, pyruvate, and Penn/Strep. • 2. 50 μl of the resulting cell suspension is plated into each well of 96-well tissue culture dishes (Biocoat B&D #354407) using a multi-channel pipettor. The dishes have been previously loaded with 50 μL of DMSO-solubilized test compounds at twice the test concentration in DMEM. Data reported are either n=4 wells (single poke) and n=2 wells (9-point concentration-response curves). • 3. Cells are incubated overnight at 37° C. in the selected compounds. Reporter Assay: • 1. […]

The next assay deals with T2, βER (Homo sapiens, UniProt Q92731).
T2 construct: expressed in transfected cells; host or cells: 293 cells (Human Embryonic Kidney, ATCC CRL-1573)
T2 sequence (Q92731 54-530 limits assumed): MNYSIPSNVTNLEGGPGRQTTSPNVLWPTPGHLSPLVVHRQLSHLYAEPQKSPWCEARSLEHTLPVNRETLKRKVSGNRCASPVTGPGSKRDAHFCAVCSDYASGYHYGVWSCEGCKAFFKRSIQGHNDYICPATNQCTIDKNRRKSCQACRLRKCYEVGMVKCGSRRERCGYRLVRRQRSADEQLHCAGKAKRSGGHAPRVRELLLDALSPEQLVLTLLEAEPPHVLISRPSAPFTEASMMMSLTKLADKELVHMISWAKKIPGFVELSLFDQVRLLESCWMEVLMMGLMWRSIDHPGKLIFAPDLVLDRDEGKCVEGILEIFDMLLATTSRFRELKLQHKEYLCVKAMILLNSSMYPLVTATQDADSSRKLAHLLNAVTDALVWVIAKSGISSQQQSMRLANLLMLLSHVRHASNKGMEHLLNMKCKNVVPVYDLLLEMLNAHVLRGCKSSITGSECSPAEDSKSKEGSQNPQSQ
Briefly: Cell-based assay for ER transcriptional activity (ERE β-gal reporter), βER-transfected 293 cells. As to conditions: for pEC50 / ERE β-ER Max: 293 cells transfected with βER and ERE reporter; for ERE β-ER Max: maximal response, unit assumed; for ERE Selectivity: ratio α-ER EC50 / β-ER EC50. On the procedure:
as §1, §2, §3, §4, §5, §6

The target of the next assay is T3, human recombinant ERα (Homo sapiens, UniProt P03372).
T3 construct: purchased PanVera (Madison, Wis.)
T3 sequence (P03372 1-595): T1 sequence (P03372 1-595)
Briefly: Fluorescence polarization estrogen receptor (ERFP) binding assay, ERα. As to conditions: competition with Fluormone ES2; IC50 converted to Ki by Kenakin formula; read-out: FP α-ER Ki. The procedure:
(§7) A homogeneous mix-and-measure estrogen receptor (ER) binding assay which utilizes fluorescence polarization (FP) technology is used to identify compounds with affinity for the estrogen receptor. Purchased from PanVera (Madison, Wis.), assay reagents include purified human recombinant ERα, human recombinant ERβ, ES2 screening buffer (100 mM potassium phosphate, pH 7.4, 100 μg/mL bovine gamma globulin), and Fluormone™ ES2.
(§8) For competition binding experiments, dilutions of test compounds are prepared at 2× the final assay concentration in 0.2% DMSO in ES2 Screening buffer on TECAN Genosys, and 25 μL compound/well is dispensed into black Costar ½ volume 96-well plates. Dependent upon a lot specific Kd determination, 10-40 nM ERα or 10-40 nM ERβ and 1 nM Fluormone ES2 are then added to these plates in a final assay volume of 50 μL/well. Plates are gently shaken for at least 5 minutes to mix and incubated for at least 1 hr 45 minutes to achieve equilibrium. (Reaction mixtures are stable for up to 5 hours). After centrifugation to remove air bubbles, plates are read on an LJL Analyst or Acquest equipped with Criterion software at the following settings: Fluorescence Polarization Mode; Static Polarizer on Excitation Side; Dynamic Polarizer on Emission Side; Excitation λ=485×/−5 10 nm; Emission λ=520+/−12.5 nm.
(§9) Polarized fluorescence intensity values are collected and subsequently converted electronically to millipolarization (mp) values. Following data reduction and normalization with Excel and/or Prism software, % Ctrl values at the various test concentrations are used to obtain IC50 values via non-linear regression analysis of a four-parameter logistic equation.
(§10) Because ligand depletion is a consideration in this assay (˜40-60% input ES2 is bound in the assay), IC50 values are converted to Ki values through application of the Kenakin formula, as outlined in the reference below, rather than via the more routinely-used Cheng-Prusoff formula.

A further assay addresses T4, human recombinant ERβ (Homo sapiens, UniProt Q92731).
T4 construct: purchased PanVera (Madison, Wis.)
Briefly: Fluorescence polarization estrogen receptor (ERFP) binding assay, ERβ. The following applies: for pKi: competition with Fluormone ES2, IC50 converted to Ki by Kenakin formula, read-out: FP β-ER Ki; for FP Selectivity: ratio α-ER Ki / β-ER Ki. On the procedure: as §7, §8, §9, §10
Background: In fluorescence polarisation assays a small probe gives low polarisation when free and higher when bound to something large.

pEC50, pKi: −log10 of the molar value.

T4 sequence (Q92731 whole entry): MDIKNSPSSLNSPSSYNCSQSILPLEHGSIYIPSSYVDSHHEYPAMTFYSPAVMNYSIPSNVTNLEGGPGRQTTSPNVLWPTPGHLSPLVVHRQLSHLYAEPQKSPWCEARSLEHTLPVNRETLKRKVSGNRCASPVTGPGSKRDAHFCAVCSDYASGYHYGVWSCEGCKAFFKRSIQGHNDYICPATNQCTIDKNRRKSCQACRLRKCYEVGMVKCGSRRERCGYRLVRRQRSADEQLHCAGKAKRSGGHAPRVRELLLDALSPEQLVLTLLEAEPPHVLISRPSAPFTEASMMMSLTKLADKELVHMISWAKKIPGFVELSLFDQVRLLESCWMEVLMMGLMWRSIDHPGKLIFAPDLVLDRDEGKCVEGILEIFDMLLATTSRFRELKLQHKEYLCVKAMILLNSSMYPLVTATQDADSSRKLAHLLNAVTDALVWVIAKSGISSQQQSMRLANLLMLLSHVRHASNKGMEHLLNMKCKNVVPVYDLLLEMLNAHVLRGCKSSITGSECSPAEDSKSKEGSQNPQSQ

Turning to `Oc1ccc(N2CCc3cc(O)ccc3C2c2ccccc2)cc1` (centres unmarked) [Example 6, 2-(4Hydroxyphenyl)-1-phenyl-1,2,3,4-tetrahydroisoquinolin-6-ol], on αER, the ERE α-ER Max was 100% and the pEC50 was 9.22. At βER, the pEC50 was 8.12, the ERE β-ER Max was 105% and the “ERE Selectivity” value is 0.1. The pKi on human recombinant ERα was 8.00. Moreover, on human recombinant ERβ, the negative-log Ki (pKi) was 8.00 and the “FP Selectivity” value turned out to be 0.9.
For the compound `Oc1ccc(N2CCc3cc(O)ccc3C2c2ccc(Cl)cc2Cl)cc1` (centres unmarked) [Example 10, 1-(2,4-Dichlorophenyl)-2-(4-hydroxyphenyl)-1,2,3,4-tetrahydroisoquinolin-6-ol], the ERE α-ER Max at αER came out at 95%. At βER, this compound registered an ERE β-ER Max of 44%. Moreover, the pKi on human recombinant ERα is 7.96. At human recombinant ERβ, the pKi was 8.15 and the “FP Selectivity” value came out at 1.6.
In the same order, the values of `Cc1ccccc1C1c2ccc(O)cc2CCN1c1ccc(O)cc1` (centres unmarked) [Example 12, 2-(4-Hydroxyphenyl)-1-o-tolyl-1,2,3,4-tetrahydroisoquinolin-6-ol] are 113%, 71%, 7.80, 8.10 and 2.2.
Compound `Oc1ccc2c(c1)CCN(c1ccc(Cl)cc1Cl)C2` [Example 13, 2-(2,4-Dichloro-phenyl)-1,2,3,4-tetrahydro-isoquinolin-6-ol] returned an ERE α-ER Max on αER of 89%. The compound also displayed an ERE β-ER Max on βER of 69%. The pKi on human recombinant ERα was 7.26; at human recombinant ERβ, 7.49. Further, on human recombinant ERβ, the “FP Selectivity” value was 1.8.
Take `CC1c2ccc(O)cc2CCN1c1ccc(O)cc1` (centres unmarked) [Example 14, 2-(4-Hydroxy-phenyl)-1-methyl-1,2,3,4-tetrahydro-isoquinolin-6-ol]: at αER, the ERE α-ER Max was 42% and the pEC50 was 6.00. At βER, the negative-log EC50 (pEC50) is 6.84, the ERE β-ER Max was found to be 44% and the “ERE Selectivity” value is 7.0. In addition, the pKi on human recombinant ERα was 6.51. Further, at human recombinant ERβ, the pKi is 7.35 and the “FP Selectivity” value came out at 6.8.
With `CCC1c2ccc(O)cc2CCN1c1ccc(O)cc1` (centres unmarked) [Example 15, 1-Ethyl-2-(4-hydroxy-phenyl)-1,2,3,4-tetrahydro-isoquinolin-6-ol], at αER, the ERE α-ER Max stood at 37% and the negative-log EC50 (pEC50) was 6.00. For the same compound, on βER, the pEC50 is 7.64, the ERE β-ER Max was 51% and the “ERE Selectivity” value amounted to 43. Also, on human recombinant ERα, the pKi is 7.23. On human recombinant ERβ, the pKi is 7.74 and the “FP Selectivity” value came out at 3.3.
As to `CC1c2ccc(O)cc2CCN1c1cccc(O)c1` (centres unmarked) [Example 17, 2-(3-Hydroxy-phenyl)-1-methyl-1,2,3,4-tetrahydro-isoquinolin-6-ol], on αER, the ERE α-ER Max is 87% and the pEC50 is 8.60. On βER, the pEC50 is 7.31, the ERE β-ER Max turned out to be 72% and the “ERE Selectivity” value is given as 0.1. Also, on human recombinant ERα, the pKi was 6.96. In addition, at human recombinant ERβ, the pKi is 7.47 and the “FP Selectivity” value is listed as 3.3.
For `Cc1ccc(O)cc1N1CCc2cc(O)ccc2C1C` (centres unmarked) [Example 18, 2-(5-Hydroxy-2-methyl-phenyl)-1-methyl-1,2,3,4-tetrahydro-isoquinolin-6-ol], on αER, the ERE α-ER Max is 85% and the pEC50 is 7.61. Also, at βER, the negative-log EC50 (pEC50) is 8.21, the ERE β-ER Max was 117% and the “ERE Selectivity” value stood at 4.0. Also, the pKi at human recombinant ERα is 8.05. For the same compound, on human recombinant ERβ, the pKi is 8.35 and the “FP Selectivity” value stood at 2.1.
With `CCC1c2ccc(O)cc2CCN1c1ccc(O)c(Cl)c1` (centres unmarked) [Example 19, 2-(3-Chloro-4-hydroxy-phenyl)-1-ethyl-1,2,3,4-tetrahydro-isoquinolin-6-ol], at αER, the ERE α-ER Max stood at 66% and the pEC50 is 7.77. In addition, on βER, the pEC50 is 6.68, the ERE β-ER Max was 41% and the “ERE Selectivity” value was 0.1. Also, the pKi on human recombinant ERα is 7.14. Besides, on human recombinant ERβ, the pKi was 7.61 and the “FP Selectivity” value was 3.0.
`Cc1ccc(N2CCc3cc(O)ccc3C2c2ccccc2)cc1O` (centres unmarked) [Example 20, 2-(3-Hydroxy-4-methyl-phenyl)-1-phenyl-1,2,3,4-tetrahydro-isoquinolin-6-ol]: on αER, the ERE α-ER Max amounted to 75% and the pEC50 is 8.92. Besides, on βER, the pEC50 was 9.40, the ERE β-ER Max came out at 85% and the “ERE Selectivity” value stood at 3.3. For the same compound, the pKi at human recombinant ERα was 8.52. On human recombinant ERβ, the pKi was 8.92 and the “FP Selectivity” value was found to be 2.5.

These data come from US7256201B2, “Selective estrogen receptor-β ligands” (AstraZeneca AB, priority 2000, dated 2007).
